Assay results reported in patent US20220298483A1, “METHOD AND COMPOSITION FOR CHONDROGENESIS” (National Health Research Institutes, priority 2021, published 2022).

B1: TGFβ3: pleomorphic growth factor commonly used to induce MSC chondrogenesis (R&D Systems) (protein, UniProt P10600 301-412, looked up)
Transforming growth factor …: ALDTNYCFRNLEENCCVRPLYIDFRQDLGWKWVHEPKGYYANFCSGPCPYLRSADTTHSTVLGLYNTLNPEASASPCCVPQDLEPLTILYYVGRTPKVEQLSNMVVKSCKCS

Tests used:
[1] = tested on: human MSCs—including iPSC-MSCs, ESC-MSCs and BM-MSCs; experiment: 3D pellet culture chondrogenesis in complete chondrogenic medium, Alcian Blue staining and GAG quantification; type: cell-based; conditions: ChM containing TGFβ3, 10 μM; for pellet condensation / pellet integrity: Day 20, all 3 sources of MSCs
Method: (§1) In vitro chondrogenic differentiation using 3D pellet culture was performed as described previously (Liu et al., 2011; Wang et al., 2018; Yen et al., 2013), 2×10^5 trypsinized were centrifuged 450×g for 10 minutes to form a pellet in expansion medium. After 16 hours, the medium was changed to chondrogenic basal medium (ChBM) consisting of low-glucose DMEM supplemented with 100 units/ml penicillin, 100 μg/ml streptomycin (all from Gibco-Thermo Fisher Scientific), 1% Insulin-transferrin-sodium selenite media supplement (Sigma-Aldrich, St Louis, Mo., USA), 2 mM L-glutamine (Gibco-Thermo Fisher Scientific), 10 μM L-Ascorbic acid 2-phosphate (Sigma-Aldrich), 100 nm dexamethasone (Sigma-Aldrich). Addition of TGFβ1 (10 ng/mL; R&D Systems, Minneapolis, Minn., USA), TGFβ3 (10 ng/mL; R&D Systems), XAV939 (XAV; 10 μM; Sigma-Aldrich) or CHIR99021 (CHIR; 10 μM; Sigma-Aldrich) to ChBM was performed as indicated. Cell pellets were harvested at the indicated day for analysis. Micromass culture-based chondrogenic differentiation was performed as previously reported, using 2×10^7 cells/ml of MSCs suspended in expansion medium and 20-μl drops spotted in the center of each well of a 24-well culture plate (Craft et al., 2015; Greco et al., 2011). After adhesion for 1.5 hour in a humidified incubator at 37° C. with 5% CO2, the medium was changed to ChBM with indicated regulators for chondrogenic induction.
Samples were washed with PBS and fixed with 4% paraformaldehyde, followed by pH 1.0 1% Alcian blue 8GX (Sigma-Aldrich) staining at room temperature overnight to detect sulfated proteoglycan matrix (Lev and Spicer, 1964). Quantification of Alcian blue staining extracted with 6M Guanidine-HCl was measured in 650 nm absorbance (Song et al., 2018). […]

[2] = tested on: pellet-cultured iPSC-MSCs; experiment: 3D pellet culture chondrogenic differentiation of iPSC-MSCs, Alcian Blue staining and quantification; type: cell-based, human; conditions: for pellet condensation and Alcian Blue staining compared to ChBM: ChBM plus modulator (10 ng/mL TGFβ3, 10 μM CHIR or XAV), 20 days (FIG. 3A top); for quantification of GAG production: Day 10, compared to ChBM and to TGFβ3 (FIG. 3A right)
Method: as §1
(§2) Samples were washed with PBS and fixed with 4% paraformaldehyde, followed by pH 1.0 1% Alcian blue 8GX (Sigma-Aldrich) staining at room temperature overnight to detect sulfated proteoglycan matrix (Lev and Spicer, 1964). Quantification of Alcian blue staining extracted with 6M Guanidine-HCl was measured in 650 nm absorbance (Song et al., 2018).

[3] = tested on: micromass-cultured iPSC-MSCs; experiment: Micromass culture chondrogenic differentiation, Alcian Blue staining and quantification; type: cell-based, human; conditions: ChBM plus modulator; for micromass structural condensation and Alcian Blue intensity: Day 10, compared to ChBM and TGFβ3 (FIG. 3B)
Method: as §1, §2

iPSC-MSC pellets = experiment: Quantitative real-time PCR of chondrogenic, osteogenic and Wnt downstream genes; type: cell-based, human; conditions: for AXIN2 gene expression: 3 days (FIG. 4C); for COL2A1 gene expression / ACAN gene expression: no TGFβ unless added; for COL2A1 gene expression: Day 3 (FIG. 3C); for ACAN gene expression: Day 3 (FIG. 3D); for collagen 2A1 (COL2A1) gene expression: Day 3 (FIG. 1D); for aggrecan (ACAN) gene expression: Day 3 (FIG. 1E); for RUNX2 mRNA expression compared to ChBM: 10 ng/mL in ChBM, Day 3 (FIG. 2E)
Method: as §1
Total RNA was isolated using TRI® reagent (Sigma-Aldrich), and quantified using NanoDrop spectrophotometer (Nyxor Biotech, Paris, France) (Wang et al., 2013). Reverse transcription was performed using RevertAid H Minus reverse transcriptase (Thermo Fisher Scientific), and PCR was performed on ABI PRISM 7500 system (Applied Biosystem, Foster City, Calif., USA) with SYBR Fast qPCR kit (KAPA Biosystems, Boston, Mass., USA). mRNA expression level was calculated by using the ΔΔCt method, and glyceraldehyde 3-phosphate dehydrogenase (GAPDH) level were used as housekeeping control. The results are normalized to ChBM to represent effects of indicated modulators.

[4] = tested on: β-catenin in iPSC-MSC pellets; experiment: Immunofluorescent staining and quantification of nuclear β-catenin; type: cell-based, human; conditions: ChBM plus modulator, 1 day, compared to ChBM or TGFβ3 (FIG. 4A, 4B)
Method: as §1, with “Micromass culture-based chondrogenic differentiation was performed as previously reported, using 2×10^7 cells/ml of MSCs suspended in expansion medium and 20-μl drops spotted in the center of each well of a 24-well culture plate (Craft et al., 2015; Greco et al., 2011). After adhesion for 1.5 hour in a humidified incubator at 37° C. with 5% CO2, the medium was changed to ChBM with indicated regulators for chondrogenic induction.” left out
(§3) Immunofluorescent staining was performed as previously reported (Wang et al., 2013). […] Fluorescent signals were acquired by confocal microscopy (Leica TCS SP5 II, Wetzlar, Germany) and analyzed by Image J (NIH, Maryland, USA).

[5] = tested on: N-cadherin in iPSC-MSCs cultured as micromass; experiment: Immunofluorescent staining of N-cadherin; type: cell-based, human; conditions: ChBM plus modulator, 24 hours, compared to all other conditions (FIG. 5A, 5B)
Method: as §1, with “Micromass culture-based chondrogenic differentiation was performed as previously reported, using 2×10^7 cells/ml of MSCs suspended in expansion medium and 20-μl drops spotted in the center of each well of a 24-well culture plate (Craft et al., 2015; Greco et al., 2011). After adhesion for 1.5 hour in a humidified incubator at 37° C. with 5% CO2, the medium was changed to ChBM with indicated regulators for chondrogenic induction.” left out
as §3

[6] = tested on: N-cadherin/β-catenin interactions in micromass cultured iPSC-MSCs; experiment: Proximity ligation assay (PLA) for N-cadherin-β-catenin interaction; type: cell-based, human; conditions: ChBM plus modulator, 1 day (FIG. 5C, 5D)
Method: Micromass cultured iPSC-MSCs were used for PLA and performed according to the manufacturer's protocol (Sigma-Aldrich). Antibodies against N-cadherin (Abcam) and β-catenin (BD Biosciences) were used for recognition. After ligation and amplification, the PLA signals from each pair of probes in close proximity (<40 nm) were visualized by confocal microscope (Leica TCS SP5 II) and signal counts were analyzed by Image J.

[7] = tested on: Mouse BM-MSCs transplanted subcutaneously into wild-type C57BL/6J mice; experiment: In vivo ectopic chondrogenesis, Alcian Blue staining of transplanted MSC pellets; conditions: local injection every 3 days, harvest Day 20 (FIG. 3F)
Method: Samples were washed with PBS and fixed with 4% paraformaldehyde, followed by pH 1.0 1% Alcian blue 8GX (Sigma-Aldrich) staining at room temperature overnight to detect sulfated proteoglycan matrix (Lev and Spicer, 1964). Quantification of Alcian blue staining extracted with 6M Guanidine-HCl was measured in 650 nm absorbance (Song et al., 2018). All animal work was performed according to protocols approved by the Institutional Animal Care and Use Committee. In vivo ectopic chondrogenesis was performed as previously reported with modifications (Zhao et al., 2014). Mouse BM-MSCs were cultured as 3D pellets in ChBM alone or with addition of TGFβ3, CHIR, or XAV for 3 days, then subcutaneously transplanted to dorsal skin of wild-type C57BL/6J mice, with local injections of modulators every 3 days till the pellet sample was harvested at Day 20. Collected samples were then frozen in optimal cutting temperature (OCT) compound and sliced to […] in thickness for histological staining.

[8] = tested on: β-catenin in micromass-cultured iPSC-MSCs; experiment: Immunofluorescence quantification of β-catenin expression; type: cell-based, human; conditions: 1 day (FIG. 8)
Method: Confocal immunofluorescence microscopy and fluorescence quantification of β-catenin in micromass-cultured iPSC-MSCs with the indicated modulators in chondrogenic induction medium for 1 day. Nuclei are labeled by DAPI. Scale bar, 5 μm. ChBM, chondrogenic basal medium without TGFβ. XAV, Wnt/β-catenin antagonist XAV939. CHIR, Wnt/β-catenin agonist CHIR99021. Data are represented as mean±S.D. *, p<0.05, **, p<0.01, ***, p<0.001.
Immunofluorescent staining was performed as previously reported (Wang et al., 2013). Paraformaldehyde-fixed cell samples were permeabilized with 0.1% Triton X-100 and nonspecific binding was blocked by 5% bovine serum albumin Primary antibodies against alpha smooth muscle actin (αSMA) (Sigma-Aldrich), β-catenin (BD Biosciences, San Jose, Calif., USA) or N-cadherin (Abcam, Cambridge, UK) were stained with 1:100 dilution for 24 hours, followed by species specific secondary antibody incubation overnight. Fluorescent signals were acquired by confocal microscopy (Leica TCS SP5 II, Wetzlar, Germany) and analyzed by Image J (NIH, Maryland, USA).

[9] = ChBM plus modulator, 3 days (FIG. 4D)

| Molecule | pellet condensation / pellet integrity [1] | pellet condensation and Alcian Blue staining compared to ChBM [2] | quantification of GAG production ([2]; ChBM plus modulator) | micromass structural condensation and Alcian Blue intensity [3] | AXIN2 gene expression (iPSC-MSC pellets; ChBM plus modulator) | RUNX2 gene expression (iPSC-MSC pellets; [9]) | COL2A1 gene expression (iPSC-MSC pellets; ChBM plus modulator) | ACAN gene expression (iPSC-MSC pellets; ChBM plus modulator) | collagen 2A1 (COL2A1) gene expression (iPSC-MSC pellets; in ChM) | aggrecan (ACAN) gene expression (iPSC-MSC pellets; in ChM) | RUNX2 gene expression (iPSC-MSC pellets; in ChM, Day 3 (FIG. 1F)) | nuclear β-catenin levels [4] | N-cadherin/β-catenin interactions, PLA signals [6] | RUNX2 mRNA expression compared to ChBM (iPSC-MSC pellets) | also measured |
| --- | --- | --- | --- | --- | --- | --- | --- | --- | --- | --- | --- | --- | --- | --- | --- |
| Oc1nc(-c2ccc(C(F)(F)F)cc2)nc2c1CSCC2 [XAV, XAV939] | increased condensation of the pellets | formed well-condensed spheres and strong Alcian Blue staining | significant increases | better structural condensation and stronger Alcian Blue intensity | significantly decreased | significantly decreased | most significantly upregulated | most significantly upregulated | significant upregulation | significant upregulation | decreased expression | lowest nuclear β-catenin levels | significantly increase | – | quantification of glycosaminoglycans (GAGs), Alcian Blue ([1]; 20 days, compared to ChM (FIG. 1A)): significant increase; GAG production by Alcian Blue staining, XAV versus TGFβ3 ([2]; ChBM plus modulator, Day 10 (FIG. 3A bottom)): more rapidly induced; quantitation of GAG production in micromass culture ([3]; Day 10 (FIG. 3B)): highest production of GAG; N-cadherin expression [5]: strongly and most significantly upregulated; GAG production in in vivo differentiated samples ([7]; 10 μM): highest level of GAG production; GAG production in vivo compared to TGFβ3 agonism [7]: significantly increased |
| TGFβ1: pleomorphic growth factor commonly used to induce MSC chondrogenesis (R&D Systems) | – | – | – | – | – | – | – | – | – | – | – | – | – | significantly upregulated | – |
| Cc1c[nH]c(-c2cnc(NCCNc3ccc(C#N)cn3)nc2-c2ccc(Cl)cc2Cl)n1 [CHIR, CHIR99021] | decreased pellet integrity | did not undergo condensation but became disintegrated | minimal GAG production | minimal evidence of any micromass structure or Alcian Blue staining | strongly increased | strongly increased | minimal expression | minimal expression | significant downregulation | significant downregulation | the opposite effect | dramatically increased | minimal PLA signal detected | – | SOX9 gene expression (iPSC-MSC pellets; in ChM, Day 3 (FIG. 1C)): significant downregulation; β-catenin expression [8]: strongest expression of β-catenin |
| C=C1[C@@H](C)[C@H]2[C@H](Cc3ccccc3)NC(=O)[C@]23[C@H](OC(C)=O)/C=C/[C@@](C)(O)C(=O)[C@@H](C)C/C=C/[C@H]3[C@@H]1O [CytoD, cytochalasin D] | – | – | – | – | – | – | – | – | – | – | – | – | – | – | pellet condensation / structure and chondrogenic differentiation ([2]; 0.25 μM CytoD, 10 μM XAV, Day 10 (FIG. 5F, 5G)): significantly disrupted the condensation process with the pellets completely disintegrated by Day 10 |
| B1 | – | formed well-condensed spheres and strong Alcian Blue staining | – | – | increased expression | increased expression | did not increase expression | did not increase expression | – | – | – | – | – | significantly upregulated | – |
